Data as given in patent US6214836A, “Water soluble analogues of 20(S)-camptothecin” (Dr. Reddy's Research Foundation, priority 1996, dated 2001).
Like-named read-outs stand apart in the source and are kept apart here.

Experiments:
humans = settings: cited from earlier work
topoisomerase I = settings: cited from earlier work
[1] = test system: Human Serum Albumin (HSA); settings: in the presence of HSA at 37° C.; vs 20(S) camptothecin and 9-aminocamptothecin; cited from earlier work
[2] = test system: NCI's 60 human tumor cell line; test: NCI 60 human tumor cell line assay (mean, Table 1); type: cell-based; settings: read-out: IC 50 (mean value of the minimum drug concentration required to produce 50% cell growth inhibition (GI50))
Description: (§1) Inoculates were allowed a preincubation period of 24 h at 37° C. for stabilization. […] Readings are transferred to a microcomputer and fmal reports are generated using especially developed software.
^a IC 50 = the mean value of the minimum drug concentration (μm) of
NCI's 60 human tumor cell line assay.

SR = test: 50% growth inhibition, […] panel; type: cell-based; settings: Homo sapiens, read-out: 50% Growth Inhibition (GI 50), leukemia, 48 h
Description: as §1

MOLT-4 = test: 50% growth inhibition, […] panel; type: cell-based; settings: Homo sapiens, read-out: 50% Growth Inhibition (GI 50); MOLT-4, leukemia; 48 h
Description: as §1

CCRF-CEM = test: 50% growth inhibition, […] panel; type: cell-based; settings: Homo sapiens, read-out: 50% Growth Inhibition (GI 50), leukemia, 48 h
Description: as §1

H 460 = test: 50% growth inhibition, NSLC panel; type: cell-based; settings: Homo sapiens, NCI-H460, read-out: 50% Growth Inhibition (GI 50); H 460, NSLC; 48 h
Description: as §1

H 522 = test: 50% growth inhibition, NSLC panel; type: cell-based; settings: Homo sapiens, NCI-H522, read-out: 50% Growth Inhibition (GI 50); H 522, NSLC; 48 h
Description: as §1

HOP 62 = test: 50% growth inhibition, NSLC panel; type: cell-based; settings: Homo sapiens, read-out: 50% Growth Inhibition (GI 50); HOP 62, NSLC; 48 h
Description: as §1

SF-539 = test: 50% growth inhibition, CNS panel; type: cell-based; settings: Homo sapiens, read-out: 50% Growth Inhibition (GI 50); SF-539, CNS; 48 h
Description: as §1

SF-268 = test: 50% growth inhibition, CNS panel; type: cell-based; settings: Homo sapiens, SF-268, 48 h, read-out: 50% Growth Inhibition (GI 50)
Description: as §1

SNB-19 = test: 50% growth inhibition, CNS panel; type: cell-based; settings: Homo sapiens, read-out: 50% Growth Inhibition (GI 50); SNB-19, CNS; 48 h
Description: as §1

HCT 116 = test: 50% growth inhibition, COLON panel; type: cell-based; settings: Homo sapiens, read-out: 50% Growth Inhibition (GI 50); HCT 116, colon; 48 h
Description: as §1

SW 620 = test: 50% growth inhibition, COLON panel; type: cell-based; settings: Homo sapiens, read-out: 50% Growth Inhibition (GI 50); SW 620, colon; 48 h
Description: as §1

CAKI-1 = test: 50% growth inhibition, RENAL panel; type: cell-based; settings: Homo sapiens, read-out: 50% Growth Inhibition (GI 50); CAKI-1, renal; 48 h
Description: as §1

ACHN = test: 50% growth inhibition, RENAL panel; type: cell-based; settings: Homo sapiens, read-out: 50% Growth Inhibition (GI 50), 48 h
Description: as §1

786-O = test: 50% growth inhibition, RENAL panel; type: cell-based; settings: Homo sapiens, 786-0, read-out: 50% Growth Inhibition (GI 50), 48 h
Description: as §1

MCF-7 = test: 50% growth inhibition, BREAST panel; type: cell-based; settings: Homo sapiens, MCF7, read-out: 50% Growth Inhibition (GI 50); MCF-7, breast; 48 h
Description: as §1

MCF7/ADR = test: 50% growth inhibition, BREAST panel; type: cell-based; settings: Homo sapiens, NCI/ADR-RES, read-out: 50% Growth Inhibition (GI 50), 48 h
Description: as §1

T 47D = test: 50% growth inhibition, BREAST panel; type: cell-based; settings: Homo sapiens, T47D, read-out: 50% Growth Inhibition (GI 50), 48 h
Description: as §1

HL 60 = test: 50% growth inhibition, […] panel; type: cell-based; settings: Homo sapiens, read-out: 50% Growth Inhibition (GI 50); HL 60, leukemia; 48 h
Description: as §1

H 23 = test: 50% growth inhibition, NSLC panel; type: cell-based; settings: Homo sapiens, NCI-H23, read-out: 50% Growth Inhibition (GI 50); H 23, NSLC; 48 h
Description: as §1

SF 295 = test: 50% growth inhibition, CNS panel; type: cell-based; settings: Homo sapiens, read-out: 50% Growth Inhibition (GI 50); SF 295, CNS; 48 h
Description: as §1

HT 29 = test: 50% growth inhibition, COLON panel; type: cell-based; settings: Homo sapiens, read-out: 50% Growth Inhibition (GI 50); HT 29, colon; 48 h
Description: as §1

M 14 = test: 50% growth inhibition, MELANOMA panel; type: cell-based; settings: Homo sapiens, M14, read-out: 50% Growth Inhibition (GI 50); M 14, melanoma; 48 h
Description: as §1

UACC 62 = test: 50% growth inhibition, MELANOMA panel; type: cell-based; settings: Homo sapiens, read-out: 50% Growth Inhibition (GI 50); UACC 62, melanoma; 48 h
Description: as §1

LOX IMVI = test: 50% growth inhibition, MELANOMA panel; type: cell-based; settings: Homo sapiens, read-out: 50% Growth Inhibition (GI 50), 48 h
Description: as §1

[3] = vs 20(RS)-camptothecin of the formula 7; cited from earlier work

In the case of `CC[C@@]1(O)C(=O)OCc2c1cc1n(c2=O)Cc2cc3ccccc3nc2-1` [20(S)-Camptothecin], the “toxicity (in words)” value (humans) is given as “high toxicity problems”, the “side effects on humans (in words)” value (humans; humans) is given as “unacceptable side effects on humans” and the “topoisomerase I inhibition (in words)” value (topoisomerase I) is given as “inhibitor of topoisomerise I”.

For `CCc1c2c(nc3ccc(OC(=O)N4CCC(N5CCCCC5)CC4)cc13)-c1cc3c(c(=O)n1C2)COC(=O)[C@]3(O)CC` [CPT-11], the “percentage (%) of lactone form at equilibrium (in words)” value (shortened to “percentage (%) of lactone form”) [1] is listed as “higher percentage (%) of lactone form at equilibrium”.

`CC[C@@]1(O)C(=O)OCc2c1cc1n(c2=O)C(CC(=O)OC)c2cc3ccccc3nc2-1` (stereo partly drawn) [Example 1, 5-Carbomethoxymethylcamptothecin] showed an IC50 ([2]; Homo sapiens, 48 h) of 16200 nM.

`CC[C@@]1(O)C(=O)OCc2c1cc1n(c2=O)C(CC(C)=O)c2cc3ccccc3nc2-1` (stereo partly drawn) [Example 2, 5-(2'-oxopropyl)camptothecin] showed a GI50 (SR) of 180 nM, a GI50 (MOLT-4) of 770 nM and a GI50 (CCRF-CEM) of 380 nM. It also gave a GI50 (H 460) of 1120 nM, a GI50 (H 522) of 3980 nM and a GI50 (HOP 62) of 4460 nM. The GI50 (SF-539) was 3890 nM, the GI50 (SF-268) was 4260 nM and the GI50 (SNB-19) was 6450 nM. The GI50 (HCT 116) was 5620 nM, the GI50 (SW 620) was 6020 nM and the IC50 ([2]; Homo sapiens, 48 h) was 8310 nM. The GI50 (CAKI-1) was 2630 nM, the GI50 (ACHN) was 2880 nM and the GI50 (786-O) was 2950 nM. The GI50 (MCF-7) was 3630 nM, the GI50 (MCF7/ADR) was 1860 nM and the GI50 (T 47D) was 2630 nM.

For `CC[C@@]1(O)C(=O)OCc2c1cc1n(c2=O)C(CC(=O)OC)c2cc3cc(O)ccc3nc2-1` (stereo partly drawn) [Example 3, 10-hydroxy-5-carbomethoxymethylcamptothecin], the IC50 ([2]; Homo sapiens, 48 h) was 4890 nM.

Molecule `CC[C@@]1(O)C(=O)OCc2c1cc1n(c2=O)C(CC(C)=O)c2cc3c([N+](=O)[O-])cccc3nc2-1` (stereo partly drawn) [Example 4, 9-nitro-5-(2'-oxopropyl)camptothecin] has a GI50 (HL 60) of 230 nM, a GI50 (SR) of 20 nM and a GI50 (CCRF-CEM) of 90 nM. For the same molecule, the GI50 (H 460) was 100 nM, the GI50 (HOP 62) was 260 nM and the GI50 (H 23) was 240 nM. The GI50 (SF-539) was 260 nM, the GI50 (SF 295) was 190 nM and the GI50 (HCT 116) was 570 nM. It also gave a GI50 (HT 29) of 1170 nM, a GI50 (SW 620) of 70 nM and a GI50 (M 14) of 300 nM. For the same molecule, the GI50 (UACC 62) was 330 nM, the GI50 (LOX IMVI) was 380 nM and the IC50 ([2]; Homo sapiens, 48 h) was 1000 nM. It also gave a GI50 (CAKI-1) of 210 nM, a GI50 (ACHN) of 210 nM and a GI50 (786-O) of 300 nM.

Molecule `CC[C@@]1(O)C(=O)OCc2c1cc1n(c2=O)C(CC(=O)OC)c2cc3c([N+](=O)[O-])cccc3nc2-1` (stereo partly drawn) [Example 5, 9-Nitro-5-carbomethoxymethylcamptothecin] has an IC50 ([2]; Homo sapiens, 48 h) of 15800 nM.

Molecule `CC[C@@]1(O)C(=O)OCc2c1cc1n(c2=O)C(CC(=O)OC)c2cc3c(OC)cccc3nc2-1` (stereo partly drawn) [Example 10, 9-methoxy-5-carbomethoxymethylcamptothecin] has an IC50 ([2]; mean over NCI's 60 human tumor cell lines, 48 h incubation) of 16200 nM.

For `CCc1c2c(nc3ccc(O)cc13)-c1cc3c(c(=O)n1C2)COC(=O)[C@]3(O)CC` [SN-38, 7-ethyl-10-hydroxycamptothecin], the “percentage (%) of lactone form” value [1] is listed as “higher percentage (%) of lactone form at equilibrium”.

For `CC[C@@]1(O)C(=O)OCc2c1cc1n(c2=O)Cc2cc3c(CN(C)C)c(O)ccc3nc2-1` [Topotecan, topotecan], the “percentage (%) of lactone form” value [1] is given as “higher percentage (%) of lactone form at equilibrium”.

For `CCc1c2c(nc3ccc(OC)cc13)-c1cc3c(c(=O)n1C2)COC(=O)[C@]3(N)CC` [formula 6], the “in vivo antitumor activity (in words)” value [3] is listed as “increased in vivo antitumor activity than 20(RS)-camptothecin”.

In the case of `C=C1C(=O)OCc2c1cc1n(c2=O)Cc2c-1nc1ccc(O)cc1c2CC` [formula 8], the “topoisomerase I inhibition (in words)” value (topoisomerase I) is listed as “potent camptothecin like inhibition of topoisomerase I activity”.
